# From patent publication US20260062443A1 (ALEXION PHARMACEUTICALS, INC., priority 2022, published 2026)
# Target: T1, Human complement C1s enzyme (Homo sapiens, UniProt P09871)
# T1 sequence (P09871 438-688 limits assumed): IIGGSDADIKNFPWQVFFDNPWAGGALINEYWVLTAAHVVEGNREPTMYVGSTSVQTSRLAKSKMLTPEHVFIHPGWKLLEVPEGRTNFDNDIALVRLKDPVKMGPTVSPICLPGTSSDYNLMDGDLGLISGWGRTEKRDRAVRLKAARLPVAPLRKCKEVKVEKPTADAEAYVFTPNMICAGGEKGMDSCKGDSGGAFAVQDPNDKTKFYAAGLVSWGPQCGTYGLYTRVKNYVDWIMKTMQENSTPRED
# T1 sequence (P09871 16-437 partner limits assumed): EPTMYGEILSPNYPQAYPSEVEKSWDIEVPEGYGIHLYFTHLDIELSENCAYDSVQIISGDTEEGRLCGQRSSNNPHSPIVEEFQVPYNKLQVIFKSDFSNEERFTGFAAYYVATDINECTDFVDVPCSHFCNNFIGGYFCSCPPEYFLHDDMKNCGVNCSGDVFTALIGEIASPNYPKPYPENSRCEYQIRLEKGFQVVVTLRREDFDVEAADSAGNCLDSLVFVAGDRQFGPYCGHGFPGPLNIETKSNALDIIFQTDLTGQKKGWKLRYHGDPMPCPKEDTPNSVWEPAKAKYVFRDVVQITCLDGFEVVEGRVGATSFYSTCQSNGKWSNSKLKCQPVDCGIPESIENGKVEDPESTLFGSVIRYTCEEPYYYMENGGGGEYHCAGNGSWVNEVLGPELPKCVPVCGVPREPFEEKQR
# Assay: Human C1s enzyme assay
# Assay type: biochemical
# Settings: human complement C1s enzyme 1.16 nM, substrate Z-L-Lys-SBzl 100 μM, 5 min preincubation; read-out: IC50 (Stars), C1s Inhibiting Activity
# Outline: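 IC50 from nonlinear regression of reaction rates versus compound concentration, with rates taken from A405 recorded at 30 s intervals over 30 min after adding 100 μM Z-L-Lys-SBzl plus 100 μM DTNB. Enzyme was human C1s purified from serum, 1.16 nM, given 5 min compound preincubation at room temperature, pH 7.5 Tris/1 M NaCl.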
row,IC50 [nM],Compound
1,> 1000,"O=C(NCC(=O)N1C[C@H](OC(F)F)C[C@H]1C(=O)NCc1ccc2[nH]ncc2n1)c1ccc2c(c1)Oc1ccccc1S2 [Compound 227, (2S,4R)-N-((1H-pyrazolo[4,3-b]pyridin-5-yl)methyl)-4-(difluoromethoxy)-1-((phenoxathiine-3-carbonyl)glycyl)pyrrolidine-2-carboxamide]"
2,< 100,"O=C(NCC(=O)N1C[C@H](OC(F)F)C[C@H]1C(=O)NCc1ccc2c(c1)CNC2)c1ccc2c(c1)Oc1ccccc1S2 [Compound 228, (2S,4R)-4-(difluoromethoxy)-N-(isoindolin-5-ylmethyl)-1-((phenoxathiine-3-carbonyl)glycyl)pyrrolidine-2-carboxamide]"
3,> 1000,"O=C(NCC(=O)N1C[C@H](OC(F)F)C[C@H]1C(=O)NCc1ccc2cc[nH]c2n1)c1ccc2c(c1)Oc1ccccc1S2 [Compound 229, (2S,4R)-N-((1H-pyrrolo[2,3-b]pyridin-6-yl)methyl)-4-(difluoromethoxy)-1-((phenoxathiine-3-carbonyl)glycyl)pyrrolidine-2-carboxamide]"
4,> 1000,"O=C(NCC(=O)N1C[C@H](OC(F)F)C[C@H]1C(=O)NCc1ccc2[nH]ccc2n1)c1ccc2c(c1)Oc1ccccc1S2 [Compound 230, (2S,4R)-N-((1H-pyrrolo[3,2-b]pyridin-5-yl)methyl)-4-(difluoromethoxy)-1-((phenoxathiine-3-carbonyl)glycyl)pyrrolidine-2-carboxamide]"
5,< 100,"C[C@@H](NC(=O)[C@@H]1C[C@]2(C)C[C@@H]2N1C(=O)CNC(=O)c1ccc2c(c1)Oc1ccccc1S2)c1cc2cnccc2s1 [Compound 231, (1S,3S,5S)-5-methyl-2-((phenoxathiine-3-carbonyl)glycyl)-N-((R)-1-(thieno[3,2-c]pyridin-2-yl)ethyl)-2-azabicyclo[3.1.0]hexane-3-carboxamide]"
6,> 1000,"Nc1noc2cc(CNC(=O)[C@@H]3C[C@@H](OC(F)F)CN3C(=O)CNC(=O)c3ccc4c(c3)Oc3ccccc3S4)ccc12 [Compound 232, (2S,4R)-N-((3-aminobenzo[d]isoxazol-6-yl)methyl)-4-(difluoromethoxy)-1-((phenoxathiine-3-carbonyl)glycyl)pyrrolidine-2-carboxamide]"
7,> 1000,"O=C(NCC(=O)N1C[C@H](OC(F)F)C[C@H]1C(=O)NCc1ccc2nccn2c1)c1ccc2c(c1)Oc1ccccc1S2 [Compound 233, (2S,4R)-4-(difluoromethoxy)-N-(imidazo[1,2-a]pyridin-6-ylmethyl)-1-((phenoxathiine-3-carbonyl)glycyl)pyrrolidine-2-carboxamide]"
8,< 100,"C[C@@H](NC(=O)[C@@H]1CC2(CCCCC2)CN1C(=O)CNC(=O)c1ccc2c(c1)Oc1ccccc1S2)c1cc2cnccc2[nH]1 [Compound 234, (S)-N-((R)-1-(1H-pyrrolo[3,2-c]pyridin-2-yl)ethyl)-2-((phenoxathiine-3-carbonyl)glycyl)-2-azaspiro[4.5]decane-3-carboxamide]"
9,< 100,"O=C(NCC(=O)N1C[C@H](OC(F)F)C[C@H]1C(=O)NCc1cc2cnccc2s1)c1cccc(Oc2ccccc2)c1 [Compound 235, (2S,4R)-4-(difluoromethoxy)-1-((3-phenoxybenzoyl)glycyl)-N-(thieno[3,2-c]pyridin-2-ylmethyl)pyrrolidine-2-carboxamide]"
10,> 1000,"O=C(NCC(=O)N1C[C@H](OC(F)F)C[C@H]1C(=O)NCc1ccc2cnccc2c1)c1ccc2c(c1)Oc1ccccc1S2 [Compound 236, (2S,4R)-4-(difluoromethoxy)-N-(isoquinolin-6-ylmethyl)-1-((phenoxathiine-3-carbonyl)glycyl)pyrrolidine-2-carboxamide]"
11,> 1000,"O=C(NCC(=O)N1C[C@H](OC(F)F)C[C@H]1C(=O)NCc1ccn2ccnc2c1)c1ccc2c(c1)Oc1ccccc1S2 [Compound 237, (2S,4R)-4-(difluoromethoxy)-N-(imidazo[1,2-a]pyridin-7-ylmethyl)-1-((phenoxathiine-3-carbonyl)glycyl)pyrrolidine-2-carboxamide]"
12,< 100,"C[C@@H](NC(=O)[C@@H]1C[C@@H](S(C)(=O)=O)CN1C(=O)CNC(=O)c1ccc2c(c1)Oc1ccccc1S2)c1cc2cnccc2[nH]1 [Compound 238, (2S,4R)-N-((R)-1-(1H-pyrrolo[3,2-c]pyridin-2-yl)ethyl)-4-(methylsulfonyl)-1-((phenoxathiine-3-carbonyl)glycyl)pyrrolidine-2-carboxamide]"
13,> 1000,"O=C(NCC(=O)N1C[C@H](OC(F)F)C[C@H]1C(=O)NCc1cc2cnccc2[nH]1)c1ccccc1Oc1ccccc1 [Compound 239, (2S,4R)-N-((1H-pyrrolo[3,2-c]pyridin-2-yl)methyl)-4-(difluoromethoxy)-1-((2-phenoxybenzoyl)glycyl)pyrrolidine-2-carboxamide]"
14,< 100,"C[C@@H](NC(=O)[C@@H]1CC2(CN1C(=O)CNC(=O)c1cccc(Oc3ccc(F)cc3)c1)OCCO2)c1cc2cnccc2[nH]1 [Compound 240, (S)-N-((R)-1-(1H-pyrrolo[3,2-c]pyridin-2-yl)ethyl)-7-((3-(4-fluorophenoxy)benzoyl)glycyl)-1,4-dioxa-7-azaspiro[4.4]nonane-8-carboxamide]"
15,< 100,"C[C@@H](NC(=O)[C@@H]1C[C@@H](OC(F)F)CN1C(=O)CNC(=O)c1cccc(Oc2ccc(F)cc2)c1)c1cc2cnccc2[nH]1 [Compound 241, (2S,4R)-N-((R)-1-(1H-pyrrolo[3,2-c]pyridin-2-yl)ethyl)-4-(difluoromethoxy)-1-((3-(4-fluorophenoxy)benzoyl)glycyl) pyrrolidine-2-carboxamide]"
16,> 1000,"CC1CCN(C(=O)CNC(=O)c2ccc3c(c2)Oc2ccccc2S3)[C@@H]1C(=O)NCc1cc2cnccc2[nH]1 (stereo partly drawn) [Compound 243, (2S)-N-((1H-pyrrolo[3,2-c]pyridin-2-yl)methyl)-3-methyl-1-((phenoxathiine-3-carbonyl)glycyl)pyrrolidine-2-carboxamide]"
17,< 100,"Cc1ccc(Oc2cc(C(=O)NCC(=O)N3C[C@H](OC(F)F)C[C@H]3C(=O)NCc3cc4cnccc4[nH]3)ccc2C)cc1 [Compound 244, (2S,4R)-N-((1H-pyrrolo[3,2-c]pyridin-2-yl)methyl)-4-(difluoromethoxy)-1-((4-methyl-3-(p-tolyloxy)benzoyl)glycyl) pyrrolidine-2-carboxamide]"
18,> 1000,"O=C(NCC(=O)N1C[C@H](OC(F)F)C[C@H]1C(=O)NCc1ccc2ncsc2c1)c1ccc2c(c1)Oc1ccccc1S2 [Compound 245, (2S,4R)-N-(benzo[d]thiazol-6-ylmethyl)-4-(difluoromethoxy)-1-((phenoxathiine-3-carbonyl)glycyl)pyrrolidine-2-carboxamide]"
19,< 100,"C[C@@]12C[C@@H]1N(C(=O)CNC(=O)c1cccc(Oc3ccccc3)c1)[C@H](C(=O)NCc1cc3cnccc3s1)C2 [Compound 246, (1S,3S,5S)-5-methyl-2-((3-phenoxybenzoyl)glycyl)-N-(thieno[3,2-c]pyridin-2-ylmethyl)-2-azabicyclo[3.1.0]hexane-3-carboxamide]"
20,100 to 1000,O=C(NCC(=O)N1C[C@H](OC(F)F)C[C@H]1C(=O)NCc1cnc2[nH]ccc2c1)c1ccc2c(c1)Oc1ccccc1S2 [Compound 247]
